Laboratory results from ChEMBL document CHEMBL3872249, “Computer design, synthesis, and bioactivity analyses of drugs like fingolimod used in the treatment of multiple sclerosis” (Bioorg Med Chem, 2017).
The source made the active and inactive calls. The calls are words filed in the database; no cut-off is given here.

Tests used:
SK-N-SH [1] = assay: Effect on TNF mRNA expression in human SK-N-SH cells at EC10 by qPCR method relative to beta-actin; assay type: functional
SH-SY5Y [2] = assay: Effect on CXCL10 mRNA expression in human SH-SY5Y cells at EC10 by qPCR method relative to beta-actin; assay type: functional
SK-N-SH [3] = assay: Effect on ADORA2A mRNA expression in human SK-N-SH cells at EC10 by qPCR method relative to beta-actin; assay type: functional
SH-SY5Y [4] = assay: Effect on TNFRSF1A mRNA expression in human SH-SY5Y cells at EC10 by qPCR method relative to beta-actin; assay type: functional
SH-SY5Y [5] = assay: Effect on GNAS mRNA expression in human SH-SY5Y cells at EC10 by qPCR method relative to beta-actin; assay type: functional
SH-SY5Y [6] = assay: Effect on PMP22 mRNA expression in human SH-SY5Y cells at EC10 by qPCR method relative to beta-actin; assay type: functional
SH-SY5Y [7] = assay: Effect on VCAM1 mRNA expression in human SH-SY5Y cells at EC10 by qPCR method relative to beta-actin; assay type: functional
SK-N-SH [8] = assay: Effect on ADCY5 mRNA expression in human SK-N-SH cells at EC10 by qPCR method relative to beta-actin; assay type: functional
SH-SY5Y [9] = assay: Effect on DRD2 mRNA expression in human SH-SY5Y cells at EC10 by qPCR method relative to beta-actin; assay type: functional
U-118-MG [10] = assay: Effect on GNAS mRNA expression in human U118MG cells at EC10 by qPCR method relative to beta-actin; assay type: functional
SK-N-SH [11] = assay: Effect on IL10 mRNA expression in human SK-N-SH cells at EC10 by qPCR method relative to beta-actin; assay type: functional
U-118-MG [12] = assay: Effect on IL6 mRNA expression in human U118MG cells at EC10 by qPCR method relative to beta-actin; assay type: functional
SH-SY5Y [13] = assay: Effect on MMP9 mRNA expression in human SH-SY5Y cells at EC10 by qPCR method relative to beta-actin; assay type: functional
[14] = biological target: Sphingosine 1-phosphate receptor 1 (Homo sapiens) (UniProt P21453); assay: Agonist activity at sphingosine-1-phosphate receptor in human SH-SY5Y cells assessed as increase in cAMP level at EC10 by direct immunoassay; assay type: functional, cell-based
Sphingosine 1-phosphate receptor 1 (Homo sapiens), sequence (P21453 whole entry): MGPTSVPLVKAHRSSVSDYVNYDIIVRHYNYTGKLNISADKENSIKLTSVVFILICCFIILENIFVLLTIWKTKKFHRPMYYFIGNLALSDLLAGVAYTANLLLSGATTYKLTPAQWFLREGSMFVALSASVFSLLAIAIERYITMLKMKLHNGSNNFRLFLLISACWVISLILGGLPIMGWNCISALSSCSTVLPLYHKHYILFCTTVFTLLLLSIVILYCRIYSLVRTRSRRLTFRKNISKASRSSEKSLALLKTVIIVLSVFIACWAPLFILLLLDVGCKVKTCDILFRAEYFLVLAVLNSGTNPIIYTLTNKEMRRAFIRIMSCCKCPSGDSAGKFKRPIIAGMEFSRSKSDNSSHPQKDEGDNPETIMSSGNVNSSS

SH-SY5Y [15] = assay: Effect on ADCY5 mRNA expression in human SH-SY5Y cells at EC10 by qPCR method relative to beta-actin; assay type: functional
U-118-MG [16] = assay: Effect on MMP9 mRNA expression in human U118MG cells at EC10 by qPCR method relative to beta-actin; assay type: functional
SK-N-SH [17] = assay: Effect on S1PR1 mRNA expression in human SK-N-SH cells at EC10 by qPCR method relative to beta-actin; assay type: functional
U-118-MG [18] = assay: Effect on TNF mRNA expression in human U118MG cells at EC10 by qPCR method relative to beta-actin; assay type: functional
U-118-MG [19] = assay: Effect on NFKB1 mRNA expression in human U118MG cells at EC10 by qPCR method relative to beta-actin; assay type: functional
SK-N-SH [20] = assay: Effect on EPHA1 mRNA expression in human SK-N-SH cells at EC10 by qPCR method relative to beta-actin; assay type: functional
U-118-MG [21] = assay: Effect on VCAM1 mRNA expression in human U118MG cells at EC10 by qPCR method relative to beta-actin; assay type: functional
SK-N-SH [22] = assay: Effect on CCL2 mRNA expression in human SK-N-SH cells at EC10 by qPCR method relative to beta-actin; assay type: functional
U-118-MG [23] = assay: Effect on ADCY5 mRNA expression in human U118MG cells at EC10 by qPCR method relative to beta-actin; assay type: functional
SH-SY5Y [24] = assay: Effect on CCL2 mRNA expression in human SH-SY5Y cells at EC10 by qPCR method relative to beta-actin; assay type: functional
SH-SY5Y [25] = assay: Effect on ICAM1 mRNA expression in human SH-SY5Y cells at EC10 by qPCR method relative to beta-actin; assay type: functional
SK-N-SH [26] = assay: Effect on TNFRSF1A mRNA expression in human SK-N-SH cells at EC10 by qPCR method relative to beta-actin; assay type: functional
U-118-MG [27] = assay: Effect on PMP22 mRNA expression in human U118MG cells at EC10 by qPCR method relative to beta-actin; assay type: functional
SH-SY5Y [28] = assay: Effect on NFKB1 mRNA expression in human SH-SY5Y cells at EC10 by qPCR method relative to beta-actin; assay type: functional
[29] = biological target: Sphingosine 1-phosphate receptor 1 (Homo sapiens) (UniProt P21453); assay: Agonist activity at sphingosine-1-phosphate receptor in human U118MG cells assessed as increase in cAMP level at EC10 by direct immunoassay; assay type: functional, cell-based; conditions: U-118-MG
SH-SY5Y [30] = assay: Effect on TNF mRNA expression in human SH-SY5Y cells at EC10 by qPCR method relative to beta-actin; assay type: functional
SH-SY5Y [31] = assay: Effect on ADORA2A mRNA expression in human SH-SY5Y cells at EC10 by qPCR method relative to beta-actin; assay type: functional
SH-SY5Y [32] = assay: Effect on S1PR1 mRNA expression in human SH-SY5Y cells at EC10 by qPCR method relative to beta-actin; assay type: functional
SK-N-SH [33] = assay: Effect on NFKB1 mRNA expression in human SK-N-SH cells at EC10 by qPCR method relative to beta-actin; assay type: functional
U-118-MG [34] = assay: Effect on IL10 mRNA expression in human U118MG cells at EC10 by qPCR method relative to beta-actin; assay type: functional
SH-SY5Y [35] = assay: Effect on IL10 mRNA expression in human SH-SY5Y cells at EC10 by qPCR method relative to beta-actin; assay type: functional
SK-N-SH [36] = assay: Effect on IL6 mRNA expression in human SK-N-SH cells at EC10 by qPCR method relative to beta-actin; assay type: functional
SK-N-SH [37] = assay: Effect on PMP22 mRNA expression in human SK-N-SH cells at EC10 by qPCR method relative to beta-actin; assay type: functional
U-118-MG [38] = assay: Effect on S1PR1 mRNA expression in human U118MG cells at EC10 by qPCR method relative to beta-actin; assay type: functional
SK-N-SH [39] = assay: Effect on GNAS mRNA expression in human SK-N-SH cells at EC10 by qPCR method relative to beta-actin; assay type: functional
U-118-MG [40] = assay: Effect on ADORA2A mRNA expression in human U118MG cells at EC10 by qPCR method relative to beta-actin; assay type: functional
[41] = Cytotoxicity against human SK-N-SH cells measured after 24 hrs by crystal-violet staining based assay; assay type: toxicity, cell-based
SK-N-SH [42] = assay: Effect on CXCL10 mRNA expression in human SK-N-SH cells at EC10 by qPCR method relative to beta-actin; assay type: functional
[43] = biological target: Sphingosine 1-phosphate receptor 1 (Homo sapiens) (UniProt P21453); assay: Agonist activity at sphingosine-1-phosphate receptor human SK-N-SH cells assessed as increase in cAMP level at EC10 by direct immunoassay; assay type: functional, cell-based

Q: For `CCCCCCCCn1nnnc1CCC(N)(CO)CO.Cl`, which “fold change (FC)” value (SK-N-SH [1]) is on record?
A: -7.8456

Q: What about the “fold change (FC)” value (SH-SY5Y [2]) of the same compound?
A: -3.4279

Q: What about the “fold change (FC)” value (SK-N-SH [3]) of the same compound?
A: -5.915

Q: And the “fold change (FC)” value (SH-SY5Y [4])?
A: -6.2787

Q: And the “fold change (FC)” value (SH-SY5Y [5])?
A: -8.1531

Q: And the “fold change (FC)” value (SH-SY5Y [6])?
A: -3.5921

Q: What about the “fold change (FC)” value (SH-SY5Y [7]) of the same compound?
A: -5.2706

Q: And the “fold change (FC)” value (SK-N-SH [8])?
A: -4.4983

Q: What about the “fold change (FC)” value (SH-SY5Y [9]) of the same compound?
A: -3.3881

Q: What about the “fold change (FC)” value (U-118-MG [10]) of the same compound?
A: -2.9212

Q: And the “fold change (FC)” value (SK-N-SH [11])?
A: -7.7375

Q: And the “fold change (FC)” value (U-118-MG [12])?
A: -4.7651

Q: And the “fold change (FC)” value (SH-SY5Y [13])?
A: -5.7901

Q: What about the Activity [14] of the same compound?
A: Active

Q: What about the “fold change (FC)” value (SH-SY5Y [15]) of the same compound?
A: -5.9067

Q: And the “fold change (FC)” value (U-118-MG [16])?
A: -4.4691

Q: What about the “fold change (FC)” value (SK-N-SH [17]) of the same compound?
A: -4.3001

Q: And the “fold change (FC)” value (U-118-MG [18])?
A: -5.8487

Q: What about the “fold change (FC)” value (U-118-MG [19]) of the same compound?
A: -2.6004

Q: What about the “fold change (FC)” value (SK-N-SH [20]) of the same compound?
A: -7.9001

Q: What about the “fold change (FC)” value (U-118-MG [21]) of the same compound?
A: -3.8654

Q: And the “fold change (FC)” value (SK-N-SH [22])?
A: -8.981

Q: And the “fold change (FC)” value (U-118-MG [23])?
A: -5.787

Q: And the “fold change (FC)” value (SH-SY5Y [24])?
A: -3.0787

Q: What about the “fold change (FC)” value (SH-SY5Y [25]) of the same compound?
A: -7.3035

Q: What about the “fold change (FC)” value (SK-N-SH [26]) of the same compound?
A: -3.6537

Q: And the “fold change (FC)” value (U-118-MG [27])?
A: -5.1248

Q: And the “fold change (FC)” value (SH-SY5Y [28])?
A: -3.8433

Q: What about the Activity [29] of the same compound?
A: Active

Q: What about the “fold change (FC)” value (SH-SY5Y [30]) of the same compound?
A: -3.2642

Q: And the “fold change (FC)” value (SH-SY5Y [31])?
A: -6.5966

Q: What about the “fold change (FC)” value (SH-SY5Y [32]) of the same compound?
A: -4.2848

Q: What about the “fold change (FC)” value (SK-N-SH [33]) of the same compound?
A: -6.9253

Q: What about the “fold change (FC)” value (U-118-MG [34]) of the same compound?
A: -2.5669

Q: What about the “fold change (FC)” value (SH-SY5Y [35]) of the same compound?
A: -7.3448

Q: What about the “fold change (FC)” value (SK-N-SH [36]) of the same compound?
A: -11.9743

Q: What about the “fold change (FC)” value (SK-N-SH [37]) of the same compound?
A: -4.1464

Q: What about the “fold change (FC)” value (U-118-MG [38]) of the same compound?
A: -4.1312

Q: What about the “fold change (FC)” value (SK-N-SH [39]) of the same compound?
A: -7.631

Q: What about the “fold change (FC)” value (U-118-MG [40]) of the same compound?
A: -5.0641

Q: What about the EC10 [41] of the same compound?
A: 0.37 µM

Q: And the “fold change (FC)” value (SK-N-SH [42])?
A: -4.7219

Q: And the Activity [43]?
A: Active
